Laboratory results reported in patent US8802597B2, “Herbicidal pyrimidines” (E I du Pont de Nemours and Company, priority 2003, dated 2014).

Assays:
Experiment in all cases: Test G pre/postemergence
Format in all cases: in vivo
[1] = system: bermudagrass (Cynodon dactylon)
In short: (§1)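 Seeds or nutlets were planted and treated preemergence with compound formulated in a non-phytotoxic solvent mixture containing surfactant; plants 2 to 18 cm tall (1- to 4-leaf stage) received postemergence sprays of the same formulation. After 12 to 21 days in a greenhouse, injury was rated visually against untreated controls on a 0–100 scale (100 = complete control).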

[2] = system: itchgrass (Rottboellia cochinchinensis)
In short: as §1

[3] = system: johnsongrass (Sorghum halepense)
In short: as §1

[4] = system: dallisgrass (Paspalum dilatatum)
In short: as §1

[5] = system: annual bluegrass (Poa annua)
In short: as §1

[6] = system: broadleaf signalgrass (Brachiaria platyphylla)
In short: as §1

[7] = system: barnyardgrass (Echinochloa crus-galli)
In short: as §1

[8] = system: Surinam grass (Brachiaria decumbens)
In short: as §1

[9] = Postemergence, 8 g ai/ha, scale 0 to 100
[10] = Postemergence, 16 g ai/ha, scale 0 to 100
[11] = Postemergence, 31 g ai/ha, scale 0 to 100
[12] = Postemergence, 62 g ai/ha, scale 0 to 100
[13] = Preemergence, 8 g ai/ha, scale 0-100
[14] = Preemergence, 16 g ai/ha, scale 0-100
[15] = Preemergence, 31 g ai/ha, scale 0-100
[16] = Preemergence, 62 g ai/ha, scale 0-100
[17] = Postemergence, 250 g ai/ha, scale 0 to 100
[18] = Postemergence, 125 g ai/ha, scale 0 to 100
[19] = Preemergence, 125 g ai/ha, scale 0-100
[20] = Preemergence, 250 g ai/ha, scale 0-100

## CCOC(=O)c1nc(-c2ccc(Cl)cc2)nc(N)c1Cl [Compound 64, ethyl 6-amino-5-chloro-2-(4-chlorophenyl)-4-pyrimidinecarboxylate]
[1]; [9]
  Plant response rating, Bermudagrass: 0
[1]; [10]
  Plant response rating, Bermudagrass: 20
[1]; [11]
  Plant response rating, Bermudagrass: 35
[1]; [12]
  Plant response rating, Bermudagrass: 35
[1]; [13]
  Plant response rating, Bermudagrass: 0
[1]; [14]
  Plant response rating, Bermudagrass: 0
[1]; [15]
  Plant response rating, Bermudagrass: 0
[1]; [16]
  Plant response rating, Bermudagrass: 0
[2]; [9]
  Plant response rating, Itchgrass: 0
[2]; [10]
  Plant response rating, Itchgrass: 0
[2]; [11]
  Plant response rating, Itchgrass: 0
[2]; [12]
  Plant response rating, Itchgrass: 60
[2]; [13]
  Plant response rating, Itchgrass: 0
[2]; [14]
  Plant response rating, Itchgrass: 0
[2]; [15]
  Plant response rating, Itchgrass: 0
[2]; [16]
  Plant response rating, Itchgrass: 20
[3]; [9]
  Plant response rating, Johnsongrass: 0
[3]; [10]
  Plant response rating, Johnsongrass: 0
[3]; [11]
  Plant response rating, Johnsongrass: 0
[3]; [12]
  Plant response rating, Johnsongrass: 0
[3]; [13]
  Plant response rating, Johnsongrass: 0
[3]; [14]
  Plant response rating, Johnsongrass: 0
[3]; [15]
  Plant response rating, Johnsongrass: 0
[3]; [16]
  Plant response rating, Johnsongrass: 0
[4]; [9]
  Plant response rating, Dallisgrass: 0
[4]; [10]
  Plant response rating, Dallisgrass: 0
[4]; [11]
  Plant response rating, Dallisgrass: 0
[4]; [12]
  Plant response rating, Dallisgrass: 20
[4]; [13]
  Plant response rating, Dallisgrass: 0
[4]; [14]
  Plant response rating, Dallisgrass: 0
[4]; [15]
  Plant response rating, Dallisgrass: 0
[4]; [16]
  Plant response rating, Dallisgrass: 0
[5]; [9]
  Plant response rating, Bluegrass: 0
[5]; [10]
  Plant response rating, Bluegrass: 0
[5]; [11]
  Plant response rating, Bluegrass: 0
[5]; [12]
  Plant response rating, Bluegrass: 0
[5]; [13]
  Plant response rating, Bluegrass: 0
[5]; [14]
  Plant response rating, Bluegrass: 0
[5]; [15]
  Plant response rating, Bluegrass: 0
[5]; [16]
  Plant response rating, Bluegrass: 0
[6]; [9]
  Plant response rating, Signalgrass: 0
[6]; [10]
  Plant response rating, Signalgrass: 0
[6]; [11]
  Plant response rating, Signalgrass: 0
[6]; [12]
  Plant response rating, Signalgrass: 30
[6]; [13]
  Plant response rating, Signalgrass: 0
[6]; [14]
  Plant response rating, Signalgrass: 0
[6]; [15]
  Plant response rating, Signalgrass: 0
[6]; [16]
  Plant response rating, Signalgrass: 0
[7]; [9]
  Plant response rating, Barnyardgrass: 0
[7]; [10]
  Plant response rating, Barnyardgrass: 20
[7]; [11]
  Plant response rating, Barnyardgrass: 20
[7]; [12]
  Plant response rating, Barnyardgrass: 20
[7]; [13]
  Plant response rating, Barnyardgrass: 0
[7]; [14]
  Plant response rating, Barnyardgrass: 0
[7]; [15]
  Plant response rating, Barnyardgrass: 0
[7]; [16]
  Plant response rating, Barnyardgrass: 10
[8]; [9]
  Plant response rating, Surinam Grass: 0
[8]; [10]
  Plant response rating, Surinam Grass: 0
[8]; [11]
  Plant response rating, Surinam Grass: 0
[8]; [12]
  Plant response rating, Surinam Grass: 10
[8]; [13]
  Plant response rating, Surinam Grass: 0
[8]; [14]
  Plant response rating, Surinam Grass: 0
[8]; [15]
  Plant response rating, Surinam Grass: 0
[8]; [16]
  Plant response rating, Surinam Grass: 0

## Nc1nc(C2CC2)nc(C(=O)[O-])c1Cl.[Na+] [Compound 77, 6-amino-5-chloro-2-cyclopropyl-4-pyrimidinecarboxylic acid monosodium salt]
[1]; [17]
  Plant response rating, Bermudagrass: 50
[1]; [10]
  Plant response rating, Bermudagrass: 10
[1]; [11]
  Plant response rating, Bermudagrass: 20
[1]; [12]
  Plant response rating, Bermudagrass: 35
[1]; [18]
  Plant response rating, Bermudagrass: 35
[1]; [14]
  Plant response rating, Bermudagrass: 0
[1]; [15]
  Plant response rating, Bermudagrass: 0
[1]; [16]
  Plant response rating, Bermudagrass: 0
[1]; [19]
  Plant response rating, Bermudagrass: 10
[1]; [20]
  Plant response rating, Bermudagrass: 60
[2]; [17]
  Plant response rating, Itchgrass: 80
[2]; [10]
  Plant response rating, Itchgrass: 0
[2]; [11]
  Plant response rating, Itchgrass: 35
[2]; [12]
  Plant response rating, Itchgrass: 65
[2]; [18]
  Plant response rating, Itchgrass: 70
[2]; [14]
  Plant response rating, Itchgrass: 0
[2]; [15]
  Plant response rating, Itchgrass: 10
[2]; [16]
  Plant response rating, Itchgrass: 45
[2]; [19]
  Plant response rating, Itchgrass: 85
[2]; [20]
  Plant response rating, Itchgrass: 90
[3]; [17]
  Plant response rating, Johnsongrass: 85
[3]; [10]
  Plant response rating, Johnsongrass: 20
[3]; [11]
  Plant response rating, Johnsongrass: 65
[3]; [12]
  Plant response rating, Johnsongrass: 70
[3]; [18]
  Plant response rating, Johnsongrass: 85
[3]; [14]
  Plant response rating, Johnsongrass: 10
[3]; [15]
  Plant response rating, Johnsongrass: 65
[3]; [16]
  Plant response rating, Johnsongrass: 75
[3]; [19]
  Plant response rating, Johnsongrass: 85
[3]; [20]
  Plant response rating, Johnsongrass: 95
[4]; [17]
  Plant response rating, Dallisgrass: 50
[4]; [10]
  Plant response rating, Dallisgrass: 0
[4]; [11]
  Plant response rating, Dallisgrass: 0
[4]; [12]
  Plant response rating, Dallisgrass: 15
[4]; [18]
  Plant response rating, Dallisgrass: 35
[4]; [14]
  Plant response rating, Dallisgrass: 0
[4]; [15]
  Plant response rating, Dallisgrass: 5
[4]; [16]
  Plant response rating, Dallisgrass: 15
[4]; [19]
  Plant response rating, Dallisgrass: 30
[4]; [20]
  Plant response rating, Dallisgrass: 85
[5]; [17]
  Plant response rating, Bluegrass: 40
[5]; [10]
  Plant response rating, Bluegrass: 0
[5]; [11]
  Plant response rating, Bluegrass: 0
[5]; [12]
  Plant response rating, Bluegrass: 0
[5]; [18]
  Plant response rating, Bluegrass: 40
[5]; [14]
  Plant response rating, Bluegrass: 0
[5]; [15]
  Plant response rating, Bluegrass: 0
[5]; [16]
  Plant response rating, Bluegrass: 5
[5]; [19]
  Plant response rating, Bluegrass: 20
[5]; [20]
  Plant response rating, Bluegrass: 40
[6]; [17]
  Plant response rating, Signalgrass: 70
[6]; [10]
  Plant response rating, Signalgrass: 0
[6]; [11]
  Plant response rating, Signalgrass: 30
[6]; [12]
  Plant response rating, Signalgrass: 50
[6]; [18]
  Plant response rating, Signalgrass: 60
[6]; [14]
  Plant response rating, Signalgrass: 5
[6]; [15]
  Plant response rating, Signalgrass: 10
[6]; [16]
  Plant response rating, Signalgrass: 75
[6]; [19]
  Plant response rating, Signalgrass: 90
[6]; [20]
  Plant response rating, Signalgrass: 95
[7]; [17]
  Plant response rating, Barnyardgrass: 75
[7]; [10]
  Plant response rating, Barnyardgrass: 0
[7]; [11]
  Plant response rating, Barnyardgrass: 10
[7]; [12]
  Plant response rating, Barnyardgrass: 40
[7]; [18]
  Plant response rating, Barnyardgrass: 65
[7]; [14]
  Plant response rating, Barnyardgrass: 50
[7]; [15]
  Plant response rating, Barnyardgrass: 55
[7]; [16]
  Plant response rating, Barnyardgrass: 75
[7]; [19]
  Plant response rating, Barnyardgrass: 85
[7]; [20]
  Plant response rating, Barnyardgrass: 90
[8]; [17]
  Plant response rating, Surinam Grass: 70
[8]; [10]
  Plant response rating, Surinam Grass: 0
[8]; [11]
  Plant response rating, Surinam Grass: 10
[8]; [12]
  Plant response rating, Surinam Grass: 25
[8]; [18]
  Plant response rating, Surinam Grass: 65
[8]; [14]
  Plant response rating, Surinam Grass: 0
[8]; [15]
  Plant response rating, Surinam Grass: 5
[8]; [16]
  Plant response rating, Surinam Grass: 70
[8]; [19]
  Plant response rating, Surinam Grass: 90
[8]; [20]
  Plant response rating, Surinam Grass: 100
